The record followed here is patent publication US20150218534A1, “MODIFIED DNA POLYMERASE” (TOYOBO CO., LTD., priority 2012, published 2015).

The test system of the assay is bisulfite-treated human genomic DNA (MINT1, RAR, THBS1, MINT31). Briefly: PCR amplification of bisulfite-treated DNA. In kind it is biochemical. The note with it: 40 cycles (FIG. 12). How it is done:
Using bisulfite-treated DNA as a template and various primers, the difference in PCR amplification was compared. For comparison, KOD mutant (Y7A/V93K) and KOD (wild-type), each mixed with 1 μg of a KOD antibody per U of the enzyme, and Taq DNA polymerase mixed with an antibody (a mixture of equal amounts of Taq DNA polymerase (produced by Toyobo Co. Ltd.) and Anti-Taq High (produced by Toyobo Co. Ltd.)) were used.
The bisulfite-treated DNA used was human genomic DNA (produced by Roche) that had been treated with a MethylCode Bisulfite Conversion Kit of Invitrogen.
For PCR with the KOD mutant (Y7A/V93K) and PCR with the KOD, a buffer, MgSO4, and dNTPs included in KOD-Plus-Ver. 2 (produced by Toyobo Co. Ltd.) were used. 50 μl of individual reaction solutions containing 1× PCR buffer, 1.5 mM MgSO4, dNTPs (dATP, dTTP, dCTP, dGTP) in an amount of 0.2 mM, primers (SEQ ID NOs: 42 and 43 for amplification of MINT1; SEQ ID NOs: 44 and 45for amplification of RAR; SEQ ID NOs: 46 and 47 for amplification of THBS1; SEQ ID NOs: 48 and 49 for amplification of MINT31) in an amount of 15 pmol, 1 μl of bisulfite-treated DNA extract, and 1 U of each respective enzyme mixed with the antibody were used. PCR was performed using a GeneAmp PCR system 9700 (Applied Biosystems) on the following schedule: preliminary reaction at 94° C. for 2 minutes, followed by 40 cycles, each cycle consisting of 98° C. for 10 seconds, 55° C. for 15 seconds, and 68° C. for 1 minute.
For PCR with the Taq DNA polymerase, 50 μl of a reaction solution containing 1× buffer included in Blend Taq (product of Toyobo), dNTPs (dATP, […], dCTP, dGTP) in an amount of 0.2 mM, primers in an amount of 15 pmol (the same as above), 1 μl of bisulfite-treated DNA extract, and 2.5 U of the enzyme mixed with the antibody was used. […]
After the completion of each individual reaction, each of the resulting reaction solutions was analyzed using a DNA-1000 kit for MultiNA (produced by Shimadzu Corporation) to confirm amplified DNA fragments.

As to “KOD Y7A/V93K: modified KOD DNA polymerase with Y7A and V93K”, the “amplification of bisulfite-treated DNA” value is “stable amplification was confirmed”.
